Data published in patent US4194006A, “Therapeutic application of acetyl-d,l-carnitine and other acyl derivatives of d,l-carnitine” (priority 1977, dated 1980).
Where two headings read alike, the source gives them in different places.

Tests used:
in vivo = details: mouse, in vivo, iv
Source text: The tolerance of acetyl-d,l-carnitine and of the other aforementioned acyl derivatives of the formula (I), as well as their salts were investigated by comparing the LD50 obtained by administering the compounds intravenously in mice with the LD50 obtained under the same experimental conditions by intravenous injection of d,l-carnitine.

isolated rabbit hearts [1] = experiment: cardiokinetic effect on isolated heart (Langendorff): contractile force after anoxia, positive inotropic effect; details: 10 minutes from interruption of anoxic period
Procedure, shortened: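 Rabbit hearts were perfused Langendorff-style with oxygenated Ringer at 38.2 °C. Anoxia was applied until contractile force dropped by 80%, then the hearts were reoxygenated with or without compound. Contractile force was expressed as a percentage 10 min after the anoxic period ended.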

isolated rabbit hearts [2] = experiment: coronary vasodilator effect: coronary flow, isolated heart (Langendorff)
Procedure, shortened: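 Langendorff-perfused isolated rabbit hearts in oxygenated Ringer at 38.2° C; anoxia imposed until contractile force fell by 80%, then reoxygenated with or without test compound. Coronary flow, isometric contraction and ECG recorded by polygraph.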

isolated rat atrium = experiment: antiarrhythmic effect, isolated rat atrium method of M. Libonati and G. Segre; details: Rattus norvegicus; for inhibition at 0.1 µg/mL / activation at 0.1 µg/mL: 1·10^-4 g/lt; for inhibition at 0.1 µg/mL / inhibition at 0.01 µg/mL / inhibition at 0.001 µg/mL: decrease; for activation at 0.1 µg/mL / activation at 0.01 µg/mL / activation at 0.001 µg/mL: increase; for inhibition at 0.01 µg/mL / activation at 0.01 µg/mL: 1·10^-5 g/lt; for inhibition at 0.001 µg/mL / activation at 0.001 µg/mL: 1·10^-6 g/lt
female rats = experiment: antifatigue effect: rota-rod; type: in vivo, rat; details: Rattus norvegicus, ip, 0.25 h, read-out: percentage of animals staying on the rota-rod more than 180 seconds; for responders at 300 mg/kg: 300 mg/kg i.p.; for responders at 400 mg/kg: 400 mg/kg i.p.; for responders at 600 mg/kg: 600 mg/kg i.p.
Procedure, shortened: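 Female rats dosed intraperitoneally in saline, with controls given saline alone. Every 15 min after treatment animals were placed on a 6 cm rod rotating at 16 r.p.m. Value is the percentage of animals staying on the rod for more than 180 s, per session.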

[3] = read-out: Mean percent variation versus controls: excitability (-%)
[4] = read-out: Mean percent variation versus controls: frequency max (-%)
[5] = read-out: Mean percent variation versus controls: refractory period (+%)
[6] = read-out: Mean percent variation versus controls: rheobase (+%)
[7] = session 6 (every 15 minutes), * p < 0.05

Structure (SMILES): CCCCCCCCCCCCCCCCCC(=O)OC(CC(=O)[O-])C[N+](C)(C)C (racemic) [stearoyl-d,l-carnitine]
- LD50 (in vivo): ~745 mg/kg
- Contractile force, Mean ± S.E. (isolated rabbit hearts [1]; 1·10^-5 g/lt): 32.8 ± 3.01%
- Contractile force, Mean ± S.E. (isolated rabbit hearts [1]; 1·10^-6 g/lt): 27.1 ± 3.18%
- Contractile force, Mean ± S.E. (isolated rabbit hearts [1]; 5·10^-6 g/lt): 27.5 ± 4.09%
- Coronary flow, Mean ± S.E. (isolated rabbit hearts [2]; 1·10^-5 g/lt): 81.05 ± 6.27%
- Coronary flow, Mean ± S.E. (isolated rabbit hearts [2]; 1·10^-6 g/lt): 80.21 ± 8.78%
- Coronary flow, Mean ± S.E. (isolated rabbit hearts [2]; 5·10^-6 g/lt): 77.30 ± 11.8%
- inhibition at 0.1 µg/mL (isolated rat atrium; [3]): 12.3%
- inhibition at 0.1 µg/mL (isolated rat atrium; [4]): 3.5%
- activation at 0.1 µg/mL (isolated rat atrium; [5]): 24.6%
- activation at 0.1 µg/mL (isolated rat atrium; [6]): 2.08%
- inhibition at 0.01 µg/mL (isolated rat atrium; [3]): 0%
- inhibition at 0.01 µg/mL (isolated rat atrium; [4]): 1.92%
- activation at 0.01 µg/mL (isolated rat atrium; [5]): 16.2%
- activation at 0.01 µg/mL (isolated rat atrium; [6]): 3.84%
- inhibition at 0.001 µg/mL (isolated rat atrium; [3]): 0%
- inhibition at 0.001 µg/mL (isolated rat atrium; [4]): 0%
- activation at 0.001 µg/mL (isolated rat atrium; [5]): 15.6%
- activation at 0.001 µg/mL (isolated rat atrium; [6]): 1.85%
- responders at 300 mg/kg (female rats; session 1 (every 15 minutes)): 0%
- responders at 300 mg/kg (female rats; session 2 (every 15 minutes)): 0%
- responders at 300 mg/kg (female rats; session 3 (every 15 minutes)): 0%
- responders at 300 mg/kg (female rats; session 4 (every 15 minutes)): 10%
- responders at 300 mg/kg (female rats; session 5 (every 15 minutes)): 10%
- responders at 300 mg/kg (female rats; session 6 (every 15 minutes)): 10%
- responders at 400 mg/kg (female rats; session 1 (every 15 minutes)): 0%
- responders at 400 mg/kg (female rats; session 2 (every 15 minutes)): 0%
- responders at 400 mg/kg (female rats; session 3 (every 15 minutes)): 0%
- responders at 400 mg/kg (female rats; session 4 (every 15 minutes)): 10%
- responders at 400 mg/kg (female rats; session 5 (every 15 minutes)): 20%
- responders at 400 mg/kg (female rats; [7]): 20%
- responders at 600 mg/kg (female rats; session 1 (every 15 minutes)): 0%
- responders at 600 mg/kg (female rats; session 2 (every 15 minutes)): 10%
- responders at 600 mg/kg (female rats; session 3 (every 15 minutes)): 10%
- responders at 600 mg/kg (female rats; session 4 (every 15 minutes)): 20%
- responders at 600 mg/kg (female rats; session 5 (every 15 minutes)): 20%
- responders at 600 mg/kg (female rats; [7]): 20%
